The results in this text go back to patent US20210300940A1 (Merck Patent GmbH, priority 2018, published 2021).

One assay deals with T1, TLR7 (Homo sapiens, UniProt Q9NYK1).
T1 construct: expressed in transfected cells; host or cells: HEK/293 cells carrying TLR7 and an NF-kB luciferase reporter
T1 sequence (Q9NYK1 27-1049): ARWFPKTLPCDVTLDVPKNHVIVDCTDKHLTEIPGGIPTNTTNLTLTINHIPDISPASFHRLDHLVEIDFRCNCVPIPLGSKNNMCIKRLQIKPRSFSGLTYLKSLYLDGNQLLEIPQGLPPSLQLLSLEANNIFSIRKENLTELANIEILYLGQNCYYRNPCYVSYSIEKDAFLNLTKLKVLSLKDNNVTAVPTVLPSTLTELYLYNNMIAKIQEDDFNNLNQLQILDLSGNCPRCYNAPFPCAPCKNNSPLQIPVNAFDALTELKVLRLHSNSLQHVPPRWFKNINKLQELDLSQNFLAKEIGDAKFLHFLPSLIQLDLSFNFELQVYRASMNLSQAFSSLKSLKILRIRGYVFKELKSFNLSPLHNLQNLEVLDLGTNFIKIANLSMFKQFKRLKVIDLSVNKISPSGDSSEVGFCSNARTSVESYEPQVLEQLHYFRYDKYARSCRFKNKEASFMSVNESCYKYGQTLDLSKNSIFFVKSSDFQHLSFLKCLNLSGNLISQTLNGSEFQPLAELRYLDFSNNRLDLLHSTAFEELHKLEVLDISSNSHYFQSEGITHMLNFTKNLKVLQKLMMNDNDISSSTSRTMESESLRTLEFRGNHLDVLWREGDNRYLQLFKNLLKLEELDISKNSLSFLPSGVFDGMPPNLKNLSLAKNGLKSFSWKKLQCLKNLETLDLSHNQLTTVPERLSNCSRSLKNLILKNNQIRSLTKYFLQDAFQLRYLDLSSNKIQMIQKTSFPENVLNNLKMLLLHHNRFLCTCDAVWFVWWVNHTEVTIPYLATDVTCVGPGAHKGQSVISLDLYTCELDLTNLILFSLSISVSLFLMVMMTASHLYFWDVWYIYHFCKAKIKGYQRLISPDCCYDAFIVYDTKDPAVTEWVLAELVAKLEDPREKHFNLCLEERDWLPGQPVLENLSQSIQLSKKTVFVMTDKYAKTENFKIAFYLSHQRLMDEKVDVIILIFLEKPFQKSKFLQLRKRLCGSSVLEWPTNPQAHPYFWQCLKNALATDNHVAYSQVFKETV
The experiment in a line: HEK/293 TLR7 Cell Assay. To be noted: TLR7/NFKb HEK cells, R848 agonist 10 uM final concentration, Steady-Glo readout; read-out: TLR7 potency. Type of assay: cell-based. In outline: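 TLR7/NF-κB reporter HEK293 cells, 5000/well, cultured 24 h, then preincubated 30 min with compound before R848 agonist (10 uM final). After 5 h stimulation, Steady-Glo luciferase luminescence read.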

Another assay has as its target T2, TLR8 (Homo sapiens, UniProt Q9NR97).
T2 construct: expressed in transfected cells; host or cells: HEK/293 reporter cells (NF-kB luciferase)
T2 sequence (Q9NR97 27-1041): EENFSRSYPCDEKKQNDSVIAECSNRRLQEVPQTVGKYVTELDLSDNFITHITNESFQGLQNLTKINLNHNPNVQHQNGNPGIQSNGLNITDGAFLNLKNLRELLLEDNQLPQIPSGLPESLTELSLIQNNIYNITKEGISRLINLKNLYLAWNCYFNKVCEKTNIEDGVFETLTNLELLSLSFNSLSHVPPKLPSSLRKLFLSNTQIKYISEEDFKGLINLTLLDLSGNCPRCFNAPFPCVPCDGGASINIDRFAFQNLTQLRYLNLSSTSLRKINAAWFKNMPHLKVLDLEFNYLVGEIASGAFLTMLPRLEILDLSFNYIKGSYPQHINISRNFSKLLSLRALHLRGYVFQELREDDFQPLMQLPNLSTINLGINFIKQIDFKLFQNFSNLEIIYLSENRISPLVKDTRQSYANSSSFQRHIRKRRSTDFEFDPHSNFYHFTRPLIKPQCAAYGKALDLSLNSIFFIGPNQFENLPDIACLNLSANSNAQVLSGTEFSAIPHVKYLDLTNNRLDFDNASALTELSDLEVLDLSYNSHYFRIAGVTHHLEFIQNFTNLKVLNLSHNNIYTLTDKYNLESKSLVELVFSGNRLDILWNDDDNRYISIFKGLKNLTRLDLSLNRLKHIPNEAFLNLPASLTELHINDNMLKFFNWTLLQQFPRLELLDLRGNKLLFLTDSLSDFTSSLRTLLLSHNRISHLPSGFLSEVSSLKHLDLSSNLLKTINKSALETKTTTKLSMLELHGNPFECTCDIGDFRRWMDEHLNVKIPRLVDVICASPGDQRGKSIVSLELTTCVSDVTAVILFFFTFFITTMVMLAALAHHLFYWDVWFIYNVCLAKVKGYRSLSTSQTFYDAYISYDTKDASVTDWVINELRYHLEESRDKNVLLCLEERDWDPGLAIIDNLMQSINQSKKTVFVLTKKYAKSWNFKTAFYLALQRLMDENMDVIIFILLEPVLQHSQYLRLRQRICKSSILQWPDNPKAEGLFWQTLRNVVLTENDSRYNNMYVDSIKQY
The assay is described as follows: HEK/293 TLR8 Cell Assay. The following applies: HEK cells, R848 agonist 30 uM final concentration, Steady-Glo readout; read-out: TLR8 potency. Type of assay: cell-based.

For `CC(=O)NCCSC[C@H]1CN(c2cnc(C#N)c3ncccc23)C[C@@H](C)O1` [Example 374, N-{2-[(2R,6R)-4-(8-Cyano-[1,7]naphthyridin-5-yl)-6-methyl-morpholin-2-ylmethylsulfanyl]-ethyl}-acetamide], the IC50 on TLR7 was over 150 nM; on TLR8 it was 75 to 150 nM.

Regarding `C[C@@H]1CN(c2cnc(C#N)c3ncccc23)C[C@H](CN2CCS(=O)(=O)CC2)O1` [Example 376, 5-[(2S,6R)-2-(1,1-Dioxo-1lambda6-thiomorpholin-4-ylmethyl)-6-methyl-morpholin-4-yl]-[1,7]naphthyridine-8-carbonitrile], the IC50 on TLR7 and at TLR8 was over 150 nM in each case.

Consider `C[C@@H]1CN(c2cnc(C#N)c3ncccc23)C[C@H](CNCC2(F)CCOCC2)O1` [Example 377, 5-((2S,6R)-2-{[(4-Fluoro-tetrahydro-pyran-4-ylmethyl)-amino]-methyl}-6-methyl-morpholin-4-yl)-[1,7]naphthyridine-8-carbonitrile], for which the IC50 at TLR7 and on TLR8 was over 150 nM in each case.

For `C[C@@H]1CN(c2cnc(C#N)c3ncccc23)C[C@H](CNCC2(O)COC2)O1` [Example 378, 5-((2S,6R)-2-{[(3-Hydroxy-oxetan-3-ylmethyl)-amino]-methyl}-6-methyl-morpholin-4-yl)-[1,7]naphthyridine-8-carbonitrile], the IC50 on TLR7 and at TLR8 was over 150 nM throughout.

Turning to `C[C@@H]1CN(c2cnc(C#N)c3ncccc23)C[C@H](CN2CCNC(=O)C2)O1` [Example 379, 5-[(2R,6S)-2-Methyl-6-(3-oxo-piperazin-1-ylmethyl)-morpholin-4-yl]-naphthyridine-8-carbonitrile], the IC50 at TLR7 and at TLR8 was over 150 nM throughout.

With `CC(=O)NCCNC[C@H]1CN(c2cnc(C#N)c3ncccc23)C[C@@H](C)O1` [Example 380, N-(2-{[(2S,6R)-4-(8-Cyano-[1,7]naphthyridin-5-yl)-6-methyl-morpholin-2-ylmethyl]-amino}-ethyl)-acetamide], the IC50 at TLR7 and at TLR8 was over 150 nM throughout.

Take `CC(=O)N1CCC(NC[C@H]2CN(c3cnc(C#N)c4ncccc34)C[C@@H](C)O2)CC1` [Example 381, 5-{(2S,6R)-2-[(1-Acetyl-piperidin-4-ylamino)-methyl]-6-methyl-morpholin-4-yl}-[1,7]naphthyridine-8-carbonitrile]: the IC50 at TLR7 and at TLR8 was over 150 nM each time.

With `C[C@@H]1CN(c2cnc(C#N)c3ncccc23)C[C@H](CN2CCN(S(N)(=O)=O)CC2)O1` [Example 382, 4-{[(2S,6R)-4-(8-cyano-1,7-naphthyridin-5-yl)-6-methylmorpholin-2-yl]methyl}piperazine-1-sulfonamide], the IC50 on TLR7 and on TLR8 was over 150 nM each time.

With `C[C@@H]1CN(c2cnc(C(F)(F)F)c3ncccc23)C[C@H](CO)O1` [Example 383, [(2R,6R)-6-Methyl-4-(8-trifluoromethyl-[1,7]naphthyridin-5-yl)-morpholin-2-yl]-methanol], the IC50 on TLR7 and on TLR8 was over 150 nM each time.

On to `C[C@@H]1CN(c2cnc(C(F)(F)F)c3ncccc23)C[C@H](CNC2CCS(=O)(=O)CC2)O1` [Example 384, (1,1-Dioxo-hexahydro-1lambda6-thiopyran-4-yl)-[(2S,6R)-6-methyl-4-(8-trifluoromethyl-[1,7]naphthyridin-5-yl)-morpholin-2-ylmethyl]-amine], for which the IC50 is under 75 nM at TLR7 and over 150 nM on TLR8.

With `C[C@@H]1CN(c2cnc(C(F)(F)F)c3ncccc23)C[C@H](CN2CCN(C)CC2)O1` [Example 387, 5-[(2R,6S)-2-Methyl-6-(4-methyl-piperazin-1-ylmethyl)-morpholin-4-yl]-8-trifluoromethyl-[1,7]naphthyridine], the IC50 at TLR7 and at TLR8 was 75 to 150 nM throughout.

`N#Cc1ccc(N2C[C@H](N)C[C@H](C(F)(F)F)C2)c2ccc(=O)[nH]c12` [Example 388, 5-((3R,5S)-3-Amino-5-trifluoromethyl-piperidin-1-yl)-2-oxo-1,2-dihydro-quinoline-8-carbonitrile]: the IC50 on TLR7 and on TLR8 was over 150 nM each time.

“(2S)—N-[(3R,5S)-5-amino-1-(8-cyanoquinazolin-5-yl)piperidin-3-yl]-2-(4-methylpiperazin-1-yl)propanamide [Example 97]”: the IC50 at TLR7 is under 75 nM; on TLR8, over 150 nM.

Consider “(2S,6S)-4-(8-cyanoquinolin-5-yl)-N-[(4-fluoro-1-methylpiperidin-4-yl)methyl]-6-(trifluoromethyl)morpholine-2-carboxamide [Example 316]”, for which the IC50 on TLR7 is 75 to 150 nM; at TLR8, over 150 nM.
